Test results: PMC9929129, “Towards Translation of PqsR Inverse Agonists: From In Vitro Efficacy Optimization to In Vivo Proof‐of‐Principle” (Advanced Science, 2023)

What was measured:
[1] = In vivo PK study, intratracheal (IT) and intravenous (IV); settings: for Tmax / CL/F / Vd/F / half-life: male, CD1, mouse; for Cl/F_obs / Vz/F_obs: […] IV
Experimental: The enzymatic activity of the MLM
First, a calibration curve was prepared by […]
lavage fluid (BALF). Caffeine was used as
The in live part for the IV and IT PK studies were performed at CRO Saretius (UK). Groups of male CD1 […]
light/dark cycle with free access to food and water. Temperature and humidity were controlled according to U.K. HO regulations. On the day of the study, mice were briefly anesthetized with isoflurane before suspending the mouse by its upper incisors on a board held at an angle of approx.
45 degrees. Mice were then dosed intratracheally with the compound (24 or Tob) at the designated does formulated in ethanol/tyloxapol/glycerol/phosphate-buffered saline (PBS) [10:1:5:84] in a 1 mL/kg dosing volume up to a maximum of 30 µL per mouse. A laryngoscope was used to facilitate dosing. Animals were allowed to recover before replacing into their home cages. Terminal blood samples were then taken from groups of 3 mice at each of eight time points post-dose by cardiac puncture under CO2. Blood samples were placed in tubes on ice containing EDTA anticoagulant. After gentle mixing, samples were centrifuged (10,000 rpm x 3 min) and two 50 μL aliquots taken into fresh tubes that were immediately frozen on dry ice. Following blood sample collection, tracheas were exposed and a small incision made. An 18 Gauge plastic tube was then inserted through the incision into the trachea and tied in place. Aliquots of 0.8 mL of sterile saline were then infused into and then withdrawn from the lungs and the collected bronchoalveolar lavage (BALF) sample placed into a tube. This process was repeated two more times, and the samples from each mouse pooled. […]
frozen by immersion in liquid nitrogen.

PA14 biofilm = experiment: Biofilm-eradication assay with tobramycin (Calgary biofilm device); format: cell-based, Pseudomonas aeruginosa
Experimental: MA, USA) instrument parameters: Spray voltage 3500 V, vaporizer temperature 370 °C, sheath gas pressure 35 psi, aux gas pressure 30 psi, capillary temperature 270 °C, collision pressure 1.5 mTorr, positive ionization mode. For AQ analyte reaction monitoring parameters please see Table S1.
Table S1. LC-ESI-MS/MS reaction monitoring parameters of AQ analytes in positive ionization mode. precursor product ion collision tube lens retention ion m/z m/z energy (V) offset (V) time (min)
1.2.4 Biofilm-formation assay
Biofilm formation was determined using a MBEC Assay® Biofilm Inoculator with 96-well base (Innvotech, Edmonton, CA). An overnight culture of PA14 was centrifuged (10 min, 5000 x g). The supernatant including extracellular polymers was removed and the pellet washed with 10 mL of LB medium. Centrifugation was repeated, the supernatant discarded, and the pellet resuspended in 5 mL of LB. OD was adjusted to 0.2. The bacteria were further diluted in LB medium, followed by addition of the target compound or DMSO control to give OD 0.1 and 1% DMSO. 150 µL were added to each well of the 96-well plate. The outer wells were used as blanks containing 150 µL of 1% DMSO in LB. Six replicates per sample were distributed evenly across the plate, with every row containing one replicate of each sample. The well plate was covered with the peg lid. One layer of parafilm was wrapped around the biofilm inoculator. The inoculator was incubated at 37 °C, static for 24 h with a beaker of H2O ensuring humidity. Alternatively, the plate was incubated using only LB for 8 h prior to addition of DMSO/24 to give 1% DMSO, followed by another 16 h incubation under the same […]
After 24 h, the plate was removed from the incubator and the peg lid was transferred to a fresh 96 well plate (Nunc U bottom, Thermo Fisher, Dreieich, Germany) containing the respective target […]
compound, 150 µL 1% DMSO in LB. The inoculator was wrapped with parafilm again and incubated for another 24 h. […]
Statistical outliers were determined using the Nalimov test, applying a 95% cut-off. […]

[2] = epithelial lining fluid, iv, ELF Tmax

SMILES: CC(C)Oc1ccc(-c2ncc(CNc3ccnc(C(F)(F)F)c3)cn2)cc1Cl [Compound 24]
- Tmax [1, 2]: 40.2 ± 54 min
- CL/F ([1]; in vivo, inhaled or intranasal): 0.8 ± 0.1 mL/min/kg
- Vd/F ([1]; in vivo, inhaled or intranasal): 0.06 L/kg
- half-life ([1]; in vivo, inhaled or intranasal): 48.6 min
- Tmax ([1]; in vivo, inhaled or intranasal, ELF Tmax): 30 min
- Tmax ([1]; in vivo, inhaled or intranasal, Lung Tmax): 40.2 ± 18 min
- Tmax ([1]; in vivo, inhaled or intranasal, Tmax): 40.2 ± 18 min
- Tmax ([1]; lung tissue, iv, Lung Tmax): 4.8 min
- half-life ([1]; plasma, iv): 63 ± 6 min
- Cl/F_obs ([1]; plasma): 0.21 ± 0.0 mL/min/kg
- Vz/F_obs ([1]; plasma): 0.02 ± 0.0 L/kg
- Potentiation of tobramycin activity on biofilm (PA14 biofilm; 0.1 × 10^−6 M 24 plus tobramycin 0.5 µg mL^−1, p = 0.21): not sufficient
- CFU reduction of combination treatment compared to single treatment with the antibiotic (PA14 biofilm; 1 and 10 × 10^−6 M 24 plus tobramycin 0.5 µg mL^−1): > 3 fold

SMILES: NC[C@H]1O[C@H](O[C@H]2[C@H](O)[C@@H](O[C@H]3O[C@H](CO)[C@@H](O)[C@H](N)[C@H]3O)[C@H](N)C[C@@H]2N)[C@H](N)C[C@@H]1O [Tobramycin, tobramycin]
- Tmax ([1]; epithelial lining fluid, inhaled or intranasal, ELF Tmax, […] IT): 40.2 ± 18 min
- Tmax [1, 2]: 8.4 ± 6 min
- Tmax ([1]; lung, inhaled or intranasal, Lung Tmax, lung tissue, […] IT): 49.8 ± 18 min
- CL/F ([1]; plasma, inhaled or intranasal): 15.2 ± 8 mL/min/kg
- Vd/F ([1]; plasma, inhaled or intranasal): 1.02 ± 0.4 L/kg
- half-life ([1]; plasma, inhaled or intranasal): 48.6 ± 12 min
- Tmax ([1]; plasma, inhaled or intranasal, Tmax, […] IT): 40.2 ± 18 min
- half-life ([1]; plasma, iv): 15 ± 6 min
- Cl/F_obs ([1]; plasma): 27.99 ± 1.8 mL/min/kg
- Vz/F_obs ([1]; plasma): 0.60 ± 0.2 L/kg
- Effect of tobramycin alone on untreated biofilms (CFU) (PA14 biofilm; tobramycin 0.5 µg mL^−1, 24 h treatment, p = 0.03): only minor effects
